# In patent US11491245B2, “Gadolinium chelate compounds for use in magnetic resonance imaging” (BAYER PHARMA AKTIENGESELLSCHAFT, priority 2015, dated 2022):
# “Also recorded” adds a separate entry of the source.
# Assays:
# [1] = Contrast-enhanced magnetic resonance angiography (CE-MRA); type: in vivo, male New Zealand white rabbits; conditions: rabbits
# Description: Reference compound 1 (Gadovist®), as an approved representative of the Gadolinium-based MRI contrast agents, was used in both dose protocols (100 μmol Gd/kg bw and 30 μmol Gd/kg bw) and compared to Example 3 (30 μmol Gd/kg bw).
# The contrast-enhanced magnetic resonance angiography study was performed at a clinical 1.5 T Scanner (Magnetom Avanto, Siemens Healthcare, Erlangen, Germany). For optimal signal exploitation, a standard spine coil was used for the data acquisition. The study was done using male New Zealand white rabbits (weight 2.5-2.9 kg, n=6, Charles River Kisslegg). All animals were initially anesthetized using a body weight-adjusted intramuscular injection of a mixture (1+2) of xylazine hydrochloride (20 mg/mL, Rompun 2%, Bayer Vital GmbH, Leverkusen, Germany) and ketamine hydrochloride (100 mg/mL, Ketavet, Pfizer, Pharmacia GmbH, Berlin, Germany) using 1 mL/kg body weight. […]
# Based on a localizer sequence oriented in coronal, axial, and sagittal directions, the anatomic course of the aorta was acquired. The time to peak was determined using a small intravenous test bolus (0.25 mL/2.5-2.7 kg or 0.3 mL/2.8-2.9 kg bw, Reference compound 1) and a 3D FLASH sequence (test bolus sequence: repetition time: 36.4 millisecond, echo time 1.45 millisecond, flip angle: 30 degree, spatial resolution: 1.0×0.8×17 mm). […]
# [2] = Gadolinium release after the addition of zinc and phosphate (transmetallation); conditions: phosphate buffer pH 7.00, 2.5 mmol/L gadolinium complex, 2.5 mmol/L ZnCl2, 37° C., up to 72 h, FIG. 2
# Description: The technique is based on measurement of the evolution of the water proton paramagnetic longitudinal relaxation rate in phosphate buffer (pH 7.00, 26 mmol/L, KH2PO4 Merck, Hessen, Germany) containing 2.5 mmol/L gadolinium complex and 2.5 mmol/L ZnCl2 Sigma-Aldrich, Munich, Germany). […] The mixture was vigorously stirred, and 300 μL were taken out for the relaxometric study at 0 min, 60 min, 120 min, 3 h, 4 h, 5 h, 24 h, 48 h and 72 h. The measurements were performed on a MiniSpec mq60 spectrometer (Bruker Analytik, Karlsruhe, Germany) at 60 MHz and 37° C.
# [3] = Water solubility; type: physicochemical; conditions: 10 mM Tris-HCl buffer, 20° C.
# Outline: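 Solid compound added stepwise to 10 mM Tris-HCl buffer at 20° C., shaken and sonicated 5 min, then left overnight at 20° C. Gadolinium concentration in the resulting suspension measured by ICP-MS.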
# [4] = Excretion and residual organ gadolinium concentration; type: in vivo, male rats (Han-Wistar); conditions: male rats, 0.1 mmol Gd/kg i.v.
# Description: The excretion and organ distribution of Example 3 were determined in male rats (Han-Wistar, 100-110 g, n=3). The compound was administered as a sterile aqueous solution (54 mmol Gd/L) as a bolus in the tail vein of the animals. The dose was 0.1 mmol Gd/kg. Urine was collected in the following time periods 0-1 h, 1-3 h, 3-6 h, 6-24 h, 1-2 d and 2-5 d post injection and feces 0-1 d, 1-2 d and 2-5 d post injection. As a control, 3 animals were treated in the same way with Gadovist®, a low molecular weight contrast agent. On day 7 the animals were sacrificed and the following organs were excised: blood, liver, kidney, spleen, heart, lung, brain, mesenteric lymph nodes, muscle, skin, stomach, gut, bone and bone marrow. The remaining carcass was freeze dried and ground to a fine powder. The Gd concentration in the organs and the carcass was determined by ICP-MS (ICP-MS Agilent 7500a, Waldbronn, Germany). The Example 3 is excreted quickly via the kidneys. After 3 h 95.8%±3.4% of the injected dose was found in urine and 96.9%±3.7% after 5 days. About 1.4%±0.6% was excreted via the feces. Less than 0.5% of the administered dose was present in the body 7 days after the injection. The individual organs contained less than 0.03% of the injected dose, except the kidney which is the excretion organ.
# [5] = Pharmacokinetic parameters in rats (blood plasma kinetic); type: in vivo, male rats (Han-Wistar)
# Description: Pharmacokinetic parameters of the compound of Example 3 were determined in male rats (Han-Wistar, 220-230 g, n=3). The compound was administered as a sterile aqueous solution (52.5 mmol Gd/L) as a bolus in the tail vein of the animals. The dose was 0.1 mmol Gd/kg. Blood was sampled 1, 3, 5, 10, 15, 30, 60, 90, 120, 240, 360, 480 and 1440 min post injection and the Gd concentration was determined by Inductively Coupled Plasma Mass Spectroscopy (ICP-MS Agilent 7500a, Waldbronn, Germany). The blood level was converted to plasma concentrations by division by 0.625 (plasma fraction of rat blood, assuming strictly extracellular distribution). As a control, 3 animals were treated in the same way with Gadovist®, a low molecular weight contrast agent.
# The fit of the obtained data to a three compartment model (Phoenix—WinNonlin) yielded the pharmacokinetic parameters which are shown in Table 3.
# [6] = male rats, 0.1 mmol Gd/kg bolus tail vein, mean
# [7] = male rats, 0.1 mmol Gd/kg bolus tail vein, three compartment model, mean
compound,measurement,setting,value
"CC(C(=O)NCC(=O)NCC(CNC(=O)CNC(=O)C(C)N1CCN(CC(=O)[O-])CCN(CC(=O)[O-])CCN(CC(=O)[O-])CC1)(CNC(=O)CNC(=O)C(C)N1CCN(CC(=O)[O-])CCN(CC(=O)[O-])CCN(CC(=O)[O-])CC1)CNC(=O)CNC(=O)C(C)N1CCN(CC(=O)[O-])CCN(CC(=O)[O-])CCN(CC(=O)[O-])CC1)N1CCN(CC(=O)[O-])CCN(CC(=O)[O-])CCN(CC(=O)[O-])CC1.[Gd+3].[Gd+3].[Gd+3].[Gd+3] (stereo not drawn) [Example 3, Tetragadolinium [4,10-bis(carboxylatomethyl)-7-{3,6,12,15-tetraoxo-16-[4,7,10-tris-(carboxylatomethyl)-1,4,7,10-tetraazacyclododecan-1-yl]-9,9-bis({[({2-[4,7,10-tris-(carboxylatomethyl)-1,4,7,10-tetraazacyclododecan-1-yl]propanoyl}amino)acetyl]-amino}methyl)-4,7,11,14-tetraazaheptadecan-2-yl}-1,4,7,10-tetraazacyclododecan-1-yl]acetate]",image quality of the low dose protocol,"[1]; 30 μmol Gd/kg bw vs 30 μmol Gd/kg bw Reference compound 1, 1.5 T",significantly better than the low dose protocol of Reference compound 1
same,contrast enhancement of the low dose protocol,"[1]; 30 μmol Gd/kg bw vs 100 μmol Gd/kg bw Reference compound 1, 1.5 T",comparable to that of the standard dose of Reference compound 1
same,stability against transmetallation (relative longitudinal relaxation rate R1p(t)/R1p(0) versus time),[2],comparable to the high stability macrocyclic Reference compound 1 (Gadovist®); also recorded: comparable to the high stability of Reference compound 1 (Gadovist®)
same,Solubility,[3],>1400 mmol Gd/L
same,Feces excretion 0-1 d post injection,[4],1.13 ± 0.62% Dose
same,Feces excretion 1-2 d post injection,[4],0.10 ± 0.02% Dose
same,Feces excretion 2-5 d post injection,[4],0.13 ± 0.01% Dose
same,Total recovery,[4],98.8 ± 3.1% Dose
same,Urine excretion 0-1 h post injection,[4],90.36 ± 4.4% Dose
same,Urine excretion 1-3 h post injection,[4],5.43 ± 1.04% Dose
same,Urine excretion 1-2 d post injection,[4],0.14 ± 0.01% Dose
same,Urine excretion 2-5 d post injection,[4],0.34 ± 0.03% Dose
same,Urine excretion 3-6 h post injection,[4],0.46 ± 0.38% Dose
same,Urine excretion 6-24 h post injection,[4],0.17 ± 0.02% Dose
same,administered dose present in the body 7 days after the injection,[4],Less than 0.5%
same,excreted via the feces,[4],About 1.4%
same,Σ organs and carcass 7 d post injection,[4],0.49 ± 0.01% Dose
same,injected dose in the individual organs (except the kidney),[4]; 7 days,less than 0.03%
same,injected dose found in urine after 3 h,[4]; cumulative,95.8%
same,injected dose found in urine after 5 days,[4]; cumulative,96.9%
same,AUC∞ Area under the curve (to infinity),[5]; [6],9040 µmol·min/L
same,MRT Mean residence time,[5]; [6],24.1 min
same,"V1 + V2 Volume, compartments V1 + V2",[5]; [6],0.26 L/kg
same,"V2 Volume, compartment V2",[5]; [6],0.15 L/kg
same,"Vc (V1) Volume, central compartment V1",[5]; [6],0.11 L/kg
same,"Vd,ss Volume of distribution at steady state",[5]; [6],0.28 L/kg
same,"t½ α Half-life, compartment V1",[5]; [7],1.7 min
same,"t½ β Half-life, compartment V2",[5]; [7],18.2 min
same,"t½ γ Half-life, compartment V3",[5]; [7],133 min
same,pharmacokinetic profile (blood plasma kinetic),"[5]; rats, versus Gadovist®, FIG. 1",comparable to that of Gadovist®
